Measurements taken from article PMC10474815 (Science (New York, N.Y.), 2023).

Key:
[1] = biological target: T1, CYPA:RMC-4998:KRAS^G12C tri-complex (Homo sapiens, UniProt P01116+P62937, G12C); test: Tri-complex stability after compound washout, biophysical assays; format: binding
[2] = test system: KRAS^G12C mutant cells; test: Cancer cell line panel viability, 3D CellTiter-Glo; format: cell-based; conditions: n = 17 G12C, n = 11 non-G12C cell lines
[3] = biological target: KRAS^G13C (Homo sapiens, UniProt P01116, G13C); test: Activity on RAS variants
[4] = biological target: KRAS^G12C (Homo sapiens, UniProt P01116+P62937, G12C); test: Kinetic target engagement assay; format: biochemical; conditions: active KRAS G12C in the presence of CYPA
[5] = biological target: T1, CYPA:RMC-4998:KRAS^G12C tri-complex; test: Tri-complex stability after compound washout, cellular experiments; format: cell-based
[6] = biological target: KRAS^G12C in MIA PaCa-2 cells (Homo sapiens, UniProt P01116+P62937, G12C); test: Covalent modification of KRAS G12C in cells; format: cell-based
[7] = biological target: GDP-loaded KRAS^G12C (Homo sapiens, UniProt P01116+P62937, G12C); test: Native PAGE tri-complex formation with GDP-loaded KRAS G12C; format: binding; conditions: KRAS G12C 2 μM, compound 10 μM, CYPA 2 μM
[8] = biological target: CYPA (Homo sapiens, UniProt P62937); test: Reversible binary complex formation with CYPA; format: binding
[9] = test system: KRAS^G12C mutant NSCLC PDX models; test: Patient-derived xenograft panel, NSCLC; format: in vivo; conditions: 200 mg/kg orally once daily, 28-day treatment; 19/25 models
[10] = test system: KRAS^G12C mutant CRC PDX models; test: Patient-derived xenograft panel, CRC; format: in vivo; conditions: 200 mg/kg orally once daily, 28-day treatment; 6/15 models
[11] = test system: NCI-H358 xenografts
[12] = test system: CYPA-null H358 cells

Tri-complex half-life after compound washout [1]	Activity on KRAS G13C [3]	Covalent engagement efficiency kinact/KI [4]	Tri-complex half-life after compound washout [5]	Time to complete covalent modification of KRAS G12C [6] [min]	Complex formation with GDP-loaded KRAS G12C [7]	koff of binary complex with CYPA [8] [s⁻¹]	Kd ([8]; read-out: Kd of binary complex with CYPA) [µM]	Compound	Selectivity index (G12C versus non-G12C mutant models) [2]	Models with mean tumor regression [9] [%]	Models with mean tumor regression [10] [%]	Tolerability ([11]; mouse, in vivo, po)	Tumor response ([11]; oral once daily, 28 days)	Duration of KRAS G12C engagement and inhibition of ERK phosphorylation in tumors ([11]; single dose)	Effect of CYPA loss on cellular activity [12]
greater than 8 hours	little, if any, activity	272,000 M^−1s^−1	greater than 8 hours	≤ 5	No complex was detected	1.0	1.09	CCn1c(-c2cccnc2[C@H](C)OC)c2c3cc(ccc31)-c1cccc(c1)C[C@H](NC(=O)[C@H](C(C)C)N1CC[C@]3(CCN(C(=O)C#CC(C)(C)N(C)C)C3)C1=O)C(=O)N1CCC[C@H](N1)C(=O)OCC(C)(C)C2 [RMC-4998]	1450 times						
								CCn1c(-c2cccnc2[C@H](C)OC)c2c3cc(ccc31)N1CCO[C@@H](C[C@H](NC(=O)[C@H](C(C)C)N(C)C(=O)C3(F)CCN(C(=O)C#CC(C)(C)N(C)C)CC3)C(=O)N3CCC[C@H](N3)C(=O)OCC(C)(C)C2)C1 [RMC-6291]	13,500 times	76	40	well tolerated	near complete tumor regression	~ 24 hours	
								C=C(F)C(=O)N1CCN(c2nc(OC[C@@H]3CCCN3C)nc3c2CCN(c2cccc4cccc(Cl)c24)C3)C[C@@H]1CC#N [adagrasib]							no effect
